{"source": "BindingDB's records for patent US20240083857", "about": "(Bayer Pharma Aktiengesellschaft, 2024)"}
{"target": "Epidermal growth factor receptor (Homo sapiens, UniProt P00533)", "sequence (P00533 whole entry)": "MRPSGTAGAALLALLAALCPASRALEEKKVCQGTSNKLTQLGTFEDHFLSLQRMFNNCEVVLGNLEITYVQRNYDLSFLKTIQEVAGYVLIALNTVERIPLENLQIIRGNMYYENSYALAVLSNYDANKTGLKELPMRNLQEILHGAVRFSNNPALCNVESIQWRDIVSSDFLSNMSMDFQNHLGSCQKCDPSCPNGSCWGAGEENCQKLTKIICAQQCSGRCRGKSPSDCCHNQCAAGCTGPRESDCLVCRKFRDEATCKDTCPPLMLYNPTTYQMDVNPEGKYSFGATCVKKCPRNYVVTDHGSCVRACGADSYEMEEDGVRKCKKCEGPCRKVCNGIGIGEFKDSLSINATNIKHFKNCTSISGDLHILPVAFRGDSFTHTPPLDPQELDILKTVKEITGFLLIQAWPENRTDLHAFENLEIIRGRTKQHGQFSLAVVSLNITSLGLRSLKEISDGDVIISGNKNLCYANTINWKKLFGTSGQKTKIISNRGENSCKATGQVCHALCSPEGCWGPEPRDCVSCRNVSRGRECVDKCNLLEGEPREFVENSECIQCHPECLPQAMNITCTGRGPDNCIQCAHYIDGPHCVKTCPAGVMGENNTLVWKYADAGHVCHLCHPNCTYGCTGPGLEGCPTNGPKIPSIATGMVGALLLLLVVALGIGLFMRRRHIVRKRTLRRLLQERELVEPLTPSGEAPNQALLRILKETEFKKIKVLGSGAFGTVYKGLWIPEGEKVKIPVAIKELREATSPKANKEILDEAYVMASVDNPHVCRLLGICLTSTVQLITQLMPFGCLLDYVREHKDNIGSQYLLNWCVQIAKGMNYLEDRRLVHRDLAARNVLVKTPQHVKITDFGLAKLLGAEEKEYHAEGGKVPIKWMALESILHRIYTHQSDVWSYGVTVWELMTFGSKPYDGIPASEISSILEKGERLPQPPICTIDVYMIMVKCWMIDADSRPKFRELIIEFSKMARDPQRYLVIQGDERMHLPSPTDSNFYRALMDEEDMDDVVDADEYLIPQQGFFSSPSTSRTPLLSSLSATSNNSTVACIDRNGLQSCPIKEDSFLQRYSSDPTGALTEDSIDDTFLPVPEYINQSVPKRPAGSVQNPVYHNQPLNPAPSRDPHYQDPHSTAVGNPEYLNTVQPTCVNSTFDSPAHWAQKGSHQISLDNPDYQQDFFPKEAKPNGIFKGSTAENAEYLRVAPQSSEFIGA", "assay": "EGFR Kinase Assay", "method": "For the assay 50 nL of a 100 fold concentrated solution of the test compound in DMSO was pipetted into a black low volume 384 well microtiter plate (Greiner Bio-One, Frickenhausen, Germany), 2 μL of a solution of EGFR in aqueous assay buffer [50 mM Hepes/HCl pH 7.0, 1 mM MgCl2, 5 mM MnCl2, 0.5 mM activated sodium ortho-vanadate, 0.005% (v/v) Tween-20]were added and the mixture was incubated for 15 min at 22° C. to allow pre-binding of the test compounds to the enzyme before the start of the kinase reaction. […] The concentration of EGFR was adjusted depending of the activity of the enzyme lot and was chosen appropriate to have the assay in the linear range, typical concentration were about 3 U/ml. The reaction was stopped by the addition of 5 μl of a solution of HTRF detection reagents (0.1 μM streptavidine-XL665 [Cis Biointernational] and 1 nM PT66-Tb-Cryptate, an terbium-cryptate labelled anti-phospho-tyrosine antibody from Cis Biointernational [instead of the PT66-Tb-cryptate PT66-Eu-Chelate from Perkin Elmer can also be used]) in an aqueous EDTA-solution (80 mM EDTA, 0.2% (w/v) bovine serum albumin in 50 mM HEPES pH 7.5).The resulting mixture was incubated 1 h at 22° C. to allow the binding of the biotinylated phosphorylated peptide to the streptavidine-XL665 and the PT66-Eu-Chelate. Subsequently the amount of phosphorylated substrate was evaluated by measurement of the resonance energy transfer from the PT66-Tb-Cryptate to the streptavidine-XL665.", "units": {"IC50": "µM"}}
{"smiles": "COc1cc2nc(C)nc(NC(C)c3ccc(-c4ccccc4CNCC(=O)NCc4ccccc4)s3)c2cc1OC", "note": "(stereo unspecified) [US20240083857, Example 284]", "IC50": "> 20"}
{"smiles": "COc1cc2nc(C)nc(NC(C)c3ccc(-c4ccccc4CNCC(=O)Nc4ccccc4)s3)c2cc1OC", "note": "(stereo unspecified) [US20240083857, Example 289]", "IC50": "> 20"}
{"smiles": "COc1cc2nc(C)nc(N[C@H](C)c3ccc(C#N)cc3)c2cc1OC", "note": "[US20240083857, Example 189]", "IC50": "> 20"}
{"smiles": "COc1cc2nc(C)nc(N[C@H](C)c3cc4cccc(OC)c4o3)c2cc1OC", "note": "[US20240083857, Example 33]", "IC50": "> 20"}
{"smiles": "COc1cc2nc(C)nc(NC(C)c3ccc(-c4ccccc4CNCC(=O)N(C)C)s3)c2cc1OC", "note": "(stereo unspecified) [US20240083857, Example 280]", "IC50": "> 20"}
{"smiles": "Cc1nc(N[C@H](C)c2ccc(F)cc2)c2cc(Br)ccc2n1", "note": "[US20240083857, Example 31]", "IC50": "> 20"}
{"smiles": "Cc1nc(N[C@H](C)c2ccccc2)c2cc(Br)ccc2n1", "note": "[US20240083857, Example 29]", "IC50": "> 20"}
{"smiles": "COc1cc2nc(C)nc(NC(C)c3ccc(-c4ccccc4CNCC(N)=O)s3)c2cc1OC", "note": "(stereo unspecified) [US20240083857, Example 279]", "IC50": "> 20"}
{"smiles": "COCCNC(=O)CNCc1ccccc1-c1ccc(C(C)Nc2nc(C)nc3cc(OC)c(OC)cc23)s1", "note": "(stereo unspecified) [US20240083857, Example 283]", "IC50": "> 20"}
{"smiles": "CNC(=O)CNCc1ccccc1-c1ccc(C(C)Nc2nc(C)nc3cc(OC)c(OC)cc23)s1", "note": "(stereo unspecified) [US20240083857, Example 282]", "IC50": "> 20"}
{"smiles": "Cc1nc(NC(C)c2ccc(-c3ccccc3CN(C)C)s2)c2cc(N3CCCC3)ccc2n1", "note": "(stereo unspecified) [US20240083857, Example 415]", "IC50": "> 20"}
